Measured values from patent US8513417B2, “Method for synthesis of nitroxyl radical” (Kyushu University, National University Corporation, priority 2008, dated 2013).

Experiments:
[1] = Reactivity of nitroxyl radical to hydroxyl radical (UV/H2O2, X-band ESR); assay type: physicochemical; conditions: nitroxyl radical 25 μM, H2O2 10 mM, UV 100 to 120 mW/cm^2, X-band ESR
Experimental: In order to examine reactivities of the following 3 types of TEMPO-based nitroxyl radical derivatives, in which substituents at position-2 and position-6 in one derivative are different from those in another derivative, to free radical:
[drawing 49] according to the method of Takeshita et al. (Biochimica et Biophysica Acta, 1573, 156-164 (2002)), the following procedure was carried out. Nitroxyl radical (25 μM) was mixed with H2O2 (10 mM), and thereafter a specific amount of the mixture was collected in a capillary and irradiated with UV (100 to 120 mW/cm^2) to generate OH radical. The reactivities thereof to the nitroxyl radical were examined using X-band ESR.

[2] = Reactivity of nitroxyl radical to ascorbic acid (decrease in ESR signal intensity over time); assay type: physicochemical; conditions: nitroxyl radical 10 to 50 μM, ascorbic acid 100 μM to 2 mM, X-band ESR
Experimental: It has been reported that nitroxyl radical also reacts with a reduction substance (Couet, W. R., Tetrahedron, 41(7), 1165-1172 (1985); Finkelstein, E., Biochimica et Biophysica Acta, 802, 90-98 (1984)). Therefore, the following procedure was carried out. After nitroxyl radical (10 to 50 μM) was mixed with ascorbic acid (100 μM to 2 mM), a specific amount of the mixture was collected in a capillary, and thereafter the measurement was started. Using X-band ESR, decrease in ESR signal intensity was observed over time, thereby examining the reactivity to ascorbic acid, which is a typical reduction substance in the living body.

melting point	SMILES	reactivities to hydroxyl radical, rank order [1]	reactivities to ascorbic acid, rank order [2]	reactivity to ascorbic acid ([2]; FIG. 2)
	[O]N1C2(CCOCC2)CC(=O)CC12CCOCC2 [Compound 3, 2,6-dispiro-1′,1″-dipyran-piperidone-1-oxyl]	Compound 1>Compound 3>Compound 2	Compound 3>Compound 2>Compound 1	very rapidly reacts with ascorbic acid
55.4 °C	CC(C)(C)C1CC(=O)CC(C(C)(C)C)N1 (stereo not shown)			
